Entries after “also recorded” stand apart in the source; their conditions may differ.
Columns and labels:
[1] = system: GPRC6A-expressing cell lines or mouse pancreatic islets; conditions: ref [31]; cited from earlier work
Source text: (§1) The involvement of GPRC6A has been shown by transfection of receptor-specific siRNA, receptor blockade with a polyclonal antibody and, in the case of the islets, using tissue from KO mice.

GPRC6A [2] = conditions: GPRC6A-expressing cell lines or mouse pancreatic islets; ref [29]; cited from earlier work
Source text: as §1

mouse GPRC6A = conditions: ref [13]; cited from earlier work
Source text: Additional interest in GPRC6A has emerged due to several studies reporting that it mediates the metabolic and endocrine effects of the de-carboxylated form of the osteoblast-derived peptide, osteocalcin (OCN). […] Given these discrepancies, we sought to evaluate the pharmacology of human and mouse GPRC6A in a range of cell signalling assays ...

mouse pancreatic islets = test: Insulin release from mouse pancreatic islets; assay type: cell-based; conditions: OCN 0.03–100 ng/ml; both glucose concentrations; 90 min; n = 2; S3 Fig B
Experimental: Islets were collagenase-isolated from mice (10 x C57Bl/6; 12–13 weeks; Charles River) and incubated overnight in RPMI (with 10% FBS (v/v), 10 mM HEPES, 100 U/ml penicillin, 100 μg/ml streptomycin, sodium pyruvate and 10 mM glucose) at 37°C in 5% CO2. Islets were seeded into a 96-well plate (4 / well) in Kreb’s buffer containing 2.8 mM glucose and washed twice with the same buffer. 200 μl test drugs were added in Kreb’s buffer with the required concentration of glucose and incubated at 37°C in 5% CO2 for 90 min. The plate was centrifuged for 10 s at 200 g, supernatant recovered and insulin levels detected as described above. This protocol was approved by the IDRS (Institut de Recherches Servier) Institutional Animal Care and Use Committee.
(§2) Concentration-response data were analysed using a three or four parameter logistic function (Motulsky & Christopoulos, 2004) to generate estimates of agonist potency (LogEC50). Data for all HEK293 assays represent the mean ± SEM of at least three independent experiments (except cell impedance, n = 2). For GLP-1 release, the data represent mean ± SEM of three to five independent experiments (except for OCN, wash; n = 2). For insulin release assays, data represent the mean ± SEM of three independent experiments (except for islet studies; n = 2). Insulin release data were normalised to the response to vehicle in either low or high [glucose]. Statistical analysis for GLP-1 release data were performed by one-way ANOVA, followed by Sidak’s multiple comparisons test (treating wash / no wash datasets separately). Statistical analyses for insulin release data were performed by two-way ANOVA (with [glucose] and drug treatment as group variables), followed by Sidak’s multiple comparisons test. Where only high [glucose] groups were evaluated, statistical analysis was by one-way ANOVA followed by Sidak’s multiple comparisons test.

β-TC6 cells = test: Insulin release from β-TC6 cells; assay type: cell-based, murine; conditions: S3 Fig A
Experimental: MIN6 or βTC-6 cells were seeded in 24-well plates at 170,000 cells per well in DMEM (containing 4.5g/L glucose, 10 mM HEPES, 100 U/ml penicillin, 100 μg/ml streptomycin and 15% de-complemented FBS) and incubated at 37°C / 5% CO2 for 72 h. Cells were then washed with 500 μl PBS and incubated in 500 μl deprivation media (DMEM with zero glucose, 10 mM HEPES, 1 mM Na-pyruvate, 100 U/ml penicillin, 100 μg/ml streptomycin, 15% de-complemented FBS) for 2 h at 37°C. Media was aspirated and after washing with 500 μl PBS, cells were treated with 250 μl of Krebs buffer (250 mM NaCl, 5.9 mM KCl, 1.2 mM MgCl2, 1.3 mM CaCl2, 25 mM HEPES, 0.1% BSA (w/v), and 2 mM or 16.7 mM glucose; pH 7.4) in the presence or absence of test compound. After incubation for 2 h at 37°C, the assay was terminated by placing the plates on ice and supernatants were transferred to a 96-well plate in preparation for insulin ELISA (Alpco) following manufacturer’s instructions. The cell monolayer was washed twice with 500 μl of PBS and then lysed using 250 μl of 1 N NaOH prior to protein measurement by the method of Bradford (1976).
as §2

GLUTag cells = test: GLP-1 release from GLUTag cells; assay type: cell-based, murine; conditions: for GLP-1 release (summary): S1 Table
Method in brief: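 Matrigel-grown cells, where indicated pre-washed in Krebs-HEPES pH 7.2 with 5.5 mM glucose and 300 μM vildagliptin, were exposed to compound for 2 h at 37 °C. Secreted GLP-1 was measured by fluorescent ELISA (355/460 nm) and normalised to Bradford protein. LogEC50 values came from 3- or 4-parameter logistic fits.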

mice = conditions: injected into the peritoneal cavity; WT vs Gprc6a KO mice; ref [12]; cited from earlier work
Source text: (§3) Additional interest in GPRC6A has emerged due to several studies reporting that it mediates the metabolic and endocrine effects of the de-carboxylated form of the osteoblast-derived peptide, osteocalcin (OCN).

GPRC6A [3] = conditions: cited from earlier work
Source text: as §3

[4] = system: non-tetracycline induced or parental HEK293 cells; test: Inositol phosphate accumulation, parental or non-tetracycline-induced HEK293 cells; conditions: G protein-transfected parental HEK293 or non-tetracycline-induced cells; Fig 1B

Compound | β-cell proliferation [1] | intracellular calcium mobilisation (GPRC6A [2]) | agonist activity of OCN at mouse GPRC6A (mouse GPRC6A) | insulin secretion, OCN (mouse pancreatic islets) | insulin secretion, OCN (β-TC6 cells; OCN 0.03–100 ng/ml, both glucose concentrations) | GLP-1 release, OCN (GLUTag cells; 0.01–10 ng/ml, with or without cell washing, 2 h, Fig 6A) | GLP-1 release (summary) (GLUTag cells) | circulating insulin levels (mice) | cAMP accumulation (GPRC6A [3]; GPRC6A-expressing cell lines or mouse pancreatic islets, ref [8], [30]) | OCN concentration stimulating cAMP accumulation (GPRC6A [3]; HEK293 transfected with GPRC6A, species not stated for receptor or peptide, ref [8]) [ng/mL] | OCN concentration promoting ERK1/2 phosphorylation (GPRC6A [3]; approx., HEK293 cells expressing GPRC6A, species not stated, ref [10], [12]) [ng/mL] | glucose-sensitive insulin secretion, L-ornithine (β-TC6 cells; L-ornithine 20 mM) | GLP-1 release (GLUTag cells; L-ornithine 20 mM, 2 h, 37°C, cells washed, **P < 0.01 vs Vehicle, ELISA, Fig 6A) | inositol phosphate response in non-expressing cells [4]
OCN: osteoblast-derived peptide, osteocalcin; variant not specified at the place (YLYQWLGAPVPYPDPLEPRREVCELNPDCDELADHIGFQEAYRRFYGPV; UniProt P02818 52-100, looked up) | increased β-cell proliferation | cause intracellular calcium mobilisation | no agonist effect of OCN was evident in any of the assays profiled; also recorded: failed to replicate either the agonist activity of OCN | no effect on insulin release; also recorded: failed to induce GSIS | no effect on insulin release; also recorded: failed to induce GSIS | failed to increase GLP-1 release | No response | increases circulating insulin levels in WT but not in Gprc6a KO mice | cAMP accumulation | 3 | 40 to 80 |  |  | 
NCCC[C@H](N)C(=O)O [L-ornithine] |  |  |  |  |  |  | response |  |  |  |  | no significant effect | significantly increases GLP-1 release; also recorded: L-ornithine stimulated GLP-1 release | absent in non-tetracycline induced or parental HEK293 cells
